The source of these data is patent publication US5863950A, “HIV protease inhibitors” (Agouron Pharmaceuticals, Inc., priority 1994, dated 1999).

What is called IC50 is the concentration at which inhibition is half-maximal. Lower therefore signals higher potency. By Ki is commonly meant a measure of affinity in units of concentration, obtained from inhibition or displacement. Low values mean tighter binding, high ones weaker binding.

The first assay addresses T1, HIV-1 protease (Human immunodeficiency virus type 1 group M subtype B, UniProt P04585).
T1 construct: purified HIV-1 protease
Briefly: biochemical. It counts as biochemical. The settings on record: 0.5M NaCl, 50 mM MES pH 5.6, 2% DMSO, 37° C., 200 μM substrate. The method, then:
1. Proteolytic activity of purified HIV-1 protease was routinely measured using the chromogenic assay developed by Richards et al. (J. Biol. Chem. 265: 7733 (1990)). Synthetic peptide His-Lys-Ala-Arg-Val-Leu-Phe (pNO2)-Glu-Ala-Nle-Ser-NH2 (American Peptide Company) was used as the substrate.
2. The assay was carried out in 0.5M NaCl, 50 mM MES pH 5.6, 2% DMSO (dimethylsulfoxide) at 37° C. Cleavage of the scissile bond between leucine and paranitro-phenylalanine (Phe(pNO2)) was assayed by spectrophotometric monitoring of the decrease in absorbance at 305 nm. Initial velocity was determined as the rate of decline of absorbance during the first 100 seconds of reaction.
3. […] Between 15-25 concentrations of inhibitor were added and velocity of reaction was measured at each of the concentrations, as described above.
4. Inhibition constants were calculated using the method of Jackson et al. (Adv. in Enzyme Regulation 22: 187 (1984)).
On to `CCNC(=O)c1ccccc1CC(O)CSc1ccccc1C(=O)NCCN(C)C` (stereo not shown) [Example 38], for which the IC50 was > 500 µM.

In turn, `CC(C)(C)NC(=O)c1ccccc1SCC(O)Cc1ccc2ccccc2c1C(=O)NC(C)(C)C` (stereo not shown) [Example 52] registered a 50% inhibitory concentration (IC50) of 25 µM. In the case of `CC(C)(C)N(CCO)C(=O)c1ccccc1CCC(O)Cc1ccccc1C(=O)N(c1ccccc1)C(C)(C)C` (stereo not shown) [Example 68], the IC50 amounted to 11.9 µM and the Ki was found to be 5.8 µM. For `Cc1ccc(CCC(O)Cc2ccccc2C(=O)N(CCO)C2(C)CCCC2)c(C(=O)N(CCO)C(C)(C)C)c1` (stereo not shown) [Example 4], in that order: 0.72 µM and 0.42 µM. As to `CC(C)(C)N(CCO)C(=O)c1ccccc1CCC(O)C(F)(F)c1ccccc1C(=O)N(CCO)C(C)(C)c1ccccc1` (stereo not shown) [Example 79], the IC50 came out at 3.5 µM and affinity was put at a Ki of 3.2 µM. The compound `CC(C)(C)N(CCO)C(=O)c1ccccc1CCC(O)CCc1ccccc1C(=O)N(CCO)C(C)(C)C` [Example 33] displayed an IC50 of 6 µM. Same read-out and setting: the same measure for `CC(C)(C)NC(=O)c1ccccc1NCC(O)Cc1ccc2ccccc2c1C(=O)NC(C)(C)C` (stereo not shown) [Example 51]: 120 µM. Turning to `CC(C)(C)N(CCO)C(=O)c1ccccc1CC(O)C(O)Cc1ccccc1C(=O)N(CCO)C(C)(C)C` (stereo not shown) [Example 58], the IC50 worked out at 9.6 µM and affinity was put at a Ki of 7.7 µM. For `CC(C)(C)N(CCO)C(=O)c1ccccc1CCC(O)Cc1ccccc1C(=O)N(CCOCc1ccccc1)C(C)(C)c1ccncc1` (stereo not shown) [Example 76], in that order: 1.74 µM and 0.92 µM.

For `CC(C)(C)NC(=O)c1cc(C(C)(C)C)ccc1CCC(O)Cc1ccc2ccccc2c1C(=O)NC(C)(C)C` (stereo not shown) [Example 7], it took 1.02 µM to reach half-maximal inhibition (IC50) and the affinity corresponds to a Ki of 1.01 µM.

Take `CC(C)(C)NC(=O)c1ccccc1NCC(O)Cc1ccc2ccccc2c1C(=O)NC(C)(C)C` (stereo not shown) [Example 50]: the midpoint of inhibition, the IC50, lay at 120 µM. On to `CN(C)CCNC(=O)c1ccccc1SCC(O)Cc1ccccc1C(=O)NC(C)(C)C` (stereo not shown) [Example 39], for which the IC50 is > 500 µM. Same read-out and setting: for `CC(C)(C)NC(=O)[C@@H]1C[C@@H]2CCCC[C@@H]2CN1CC(O)CCc1ccccc1C(=O)N(CCO)C(C)(C)C` (single isomer, unassigned) [Example 30] the value was 38 µM. Consider `CC(C)(C)N(CCO)C(=O)c1ccccc1CC(O)CSc1ccccc1C(=O)N(CCO)C(C)(C)C` (stereo not shown) [Example 85], for which the IC50 is 36 µM and the affinity, expressed as Ki, was 18.4 µM.

`Cc1ccc(CC(O)CCc2ccccc2C(=O)N(Cc2ccccc2)C(C)C)c(C(=O)N(CCO)C(C)(C)c2ccccc2)c1` (stereo not shown) [Example 86] yielded a 50% inhibitory concentration (IC50) of 0.448 µM and an inhibitory constant (Ki) of 0.379 µM. Compound `CC(C)(C)NC(=O)c1ccccc1SCC(O)Cc1ccccc1C(=O)N(CCO)C(C)(C)C` (stereo not shown) [Example 36] had an IC50 of 25 µM. That is a double-digit micromolar value.

`CC(C)(C)NC(=O)c1c(CC(O)CCc2ccccc2C(=O)N(CCO)C(C)(C)C)ccc2ccccc12` (stereo not shown) [Example 3] came in with an IC50 of 2.38 µM and a Ki of 1.31 µM.

The compound `CC(C)(C)NC(=O)c1ccccc1CC(O)CSc1ccc(NCc2ccncc2)cc1C(=O)NC(C)(C)C` (stereo not shown) [Example 46] gave a 50% inhibitory concentration (IC50) of 200 µM. Take `CN(C(=O)c1ccccc1CCC(O)Cc1ccccc1C(=O)N(C)C(C)(C)C)C(C)(C)C` (stereo not shown) [Example 55]: the half-maximal inhibitory concentration (IC50) was 6.3 µM. `Cc1cc(CC(O)CCc2ccccc2C(=O)N(CCO)C(C)(C)C)c(C(=O)N(CCO)C(C)(C)c2ccccc2)cc1C` (stereo not shown) [Example 90]: the IC50 is 0.2 µM and the inhibitory constant (Ki) was 0.176 µM.

The same assay, now with this note: at 10 (μM).
For `CC(C)(C)NC(=O)c1c(CCC(O)Cc2ccccc2C(=O)N(Cc2nc3ccccc3[nH]2)C(C)(C)C)ccc2ccccc12` (stereo not shown) [Example 67], the “percent (inhibition)” value worked out at 40%. For `CC(C)(C)NC(=O)c1c(CCC(O)Cc2ccccc2C(=O)N(c2ccccc2)C(C)(C)C)ccc2ccccc12` (stereo not shown) [Example 69], the “percent (inhibition)” value turned out to be 40%.

Still in this assay, the particulars now being: at 50 (μM).
Regarding `CC(C)(C)NC(=O)c1c(CCC(O)Cc2ccccc2-c2nccc3ccccc23)ccc2ccccc12` (stereo not shown) [Example 16], the “percent (inhibition)” value is given as 20%.

Staying with this assay, now noted: at 200 (μM).
In the case of `CC(C)(C)NC(=O)c1ccccc1/C=C\C(O)Cc1ccccc1C(=O)NC(C)(C)C` (stereo not shown) [Example 27], the “percent (inhibition)” value was determined as 40%.
